In patent US20070286867A1, “Combination Therapy” (Fusion Antibodies Limited, priority 2003, published 2007):
Where a SMILES comes first, the peptide text is derived from it. The star is where a group is joined. Cbz = O=C(OCc1ccccc1)*; CH2F = FC*

Experiments:
[1] = test system: HCT116p53^+/+ cells; test: MTT cell viability assay in HCT116 p53 wild-type cells; type: cell-based, human; details: for interaction with CH-11 in MTT assay: range of drug concentrations 24 hours, then CH-11 200 ng/ml for 48 hours
Method: (§4) Cell Viability Assays. Cell viability was assessed by MTT (3-(4,5-dimethylthiazol-2-yl)-2,5-diphenyltetrazolium bromide, Sigma) assay (12). […] MTT (0.5 mg/ml) was then added to each well and the cells incubated at 37° C. for a further 3 hours. The culture medium was removed and formazan crystals reabsorbed in 200 μL DMSO. Cell viability was determined by reading the absorbance of each well at 570 nm using a 96-well microplate reader (Molecular Devices, Wokingham, England). […] Twenty microlitres (20 μL) MTT (5 mg/ml) was then added to each well and the cells incubated at 37° C. for a further 3 hours. The culture medium was removed and formazan crystals reabsorbed in 200 μL DMSO. Cell viability was determined by reading the absorbance of each well at 570 nm using an ELISA plate reader (Molecular Devices).
(§5) Statistical Analyses. The nature of the interaction between the chemotherapeutic drugs and CH-11 was determined by calculating the R index (RI), which was initially described by Kern and later modified by Romaneli (13, 14). […] Synergism is then defined as an RI of greater than unity. […] To further assess the statistical significance of the interactions, the inventors designed a univariate ANOVA analysis using the SPSS software package. This was an additive model based on the null hypothesis that there was no interaction between the drugs.

[2] = test system: Fas; test: Western blot of Fas expression in HCT116 p53 wild-type cells; type: cell-based, human; details: for induction of Fas/CD95 protein: 5-FU 5 μM, CPT-11 5 μM, Oxaliplatin 1 μM for 48 hours; for Fas expression: RTX after 72 hours, MTA data not shown
Method: (§1) Western Blotting. Western blots were performed as previously described (6). The Fas/CD95, Bc1-2 and BID (Santa Cruz Biotechnology, Santa Cruz, Calif.), caspase 8 (Oncogene Research Products, Darmstadt, Germany), p53 (Santa Cruz Biotechnology), and PARP (Pharmingen, BD Biosciences, Oxford, England) mouse monoclonal antibodies were used in conjunction with a horseradish peroxidase (HRP)-conjugated sheep anti-mouse secondary antibody (Amersham, Little Chalfont, Buckinghamshire, England). FasL rabbit polyclonal antibody (Santa Cruz Biotechnology) was used in conjunction with an HRP-conjugated donkey anti-rabbit secondary antibody (Amersham). TS sheep monoclonal primary antibody (Rockland, Gilbertsville, Pa.) was used in conjunction with an HRP-conjugated donkey anti-sheep secondary antibody (Serotech, Oxford, England). Equal loading was assessed using a β-tubulin mouse monoclonal primary antibody (Sigma).

[3] = test system: Fas/CD95 mRNA; test: Real-time PCR of Fas/CD95 mRNA in HCT116 p53 null cells; type: cell-based, human; details: IC60 72hrs doses, 24 and 48 hours
Method: (§2) Real-time PCR was performed using a DNA Engine Opticon 2 (MJ Research Incorporated). TheDyNAmo SYBR Green qPCR kit (Finnzymes) was used as the fluoresent dye specific for double-stranded DNA. PCR conditions consisted of an initial denaturation step of 95° C. for 10 minutes, followed by 39 cycles of 94° C. for 10 secs, 55° C. for 20 secs and 72° C. for 20 secs, with a final extension of 72° C. for 10 minutes. A melting curve was included at the end of each run to check the specificity of the amplified product. Experiments were performed in triplicate to ensure reproducibility of the technique. On completion of the run the PCR products were run put on a 2% ethidium bromide agarose gel to confirm that their size matched that of the expected amplicon. Primer sequences were as follows: Fas (Forward) […], Fas (Reverse) […], 18S (Forward) […], 18S (Reverse) […].

[4] = test system: Fas receptor; test: Fas/CD95 cell surface expression in p53 mutant H630 cell line (Example 11); type: cell-based; details: 48 hours; 5-FU 5 μM, CPT-11 5 μM, Oxaliplatin 1 μM
Method: (§3) Where flow cytometric analysis was employed in Examples 1 to 5, the following protocol was used. Cells were seeded at 1×10^5 per well of a 6-well tissue culture plate. […] DNA content of harvested cells was evaluated after propidium iodide staining of cells using the EPICS XL Flow Cytometer (Coulter, Miami, Fla.). Where flow cytometric analysis was employed in Examples 6 to 12, the following protocol was used. Cells were seeded at 1×10^5 per well of a 6-well tissue culture plate. […] DNA content of harvested cells was evaluated after propidium iodide staining of cells using the EPICS XL Flow Cytometer (Coulter). A FITC-conjugated monoclonal anti-human Fas antibody (DAKO) was used to determine cell surface expression of the receptor. Cells were collected and washed twice in PBS before incubating in the antibody (1/20 dilution) at 4° C. for 30 mins. A non-reactive FITC-conjugated mouse IgG1 antibody was used as a negative control for each sample. Following incubation the cells were washed twice with PBS containing 2% bovine serum albumin and fixed in 0.3 mL 4% paraformaldehyde. Samples were then analysed on the EPICS XL Flow Cytometer (Coulter).

[5] = test system: Fas; test: Western blot of Fas expression in HCT116 p53 null cells; type: cell-based, human; details: CPT-11 5 μM, 48 hours
Method: as §1

[6] = test system: Fas/CD95 mRNA; test: Real-time PCR of Fas/CD95 mRNA in HCT116 p53 wild-type cells; type: cell-based, human; details: IC60 72hrs doses
Method: as §2

[7] = test system: HCT116 p53 null cells; test: Propidium iodide flow cytometry, HCT116 p53 null; type: cell-based, human; details: drug 24 hours followed by CH-11 50 ng/ml 24 hours
Method: as §3, with “Cells” for “Where flow cytometric analysis was employed in Examples 1 to 5, the following protocol was used. Cells”, “Where flow cytometric analysis was employed in Examples 6 to 12, the following protocol was used.” left out

[8] = test system: Fas/CD95 receptor; test: Flow cytometry of Fas/CD95 cell surface expression, HCT116 p53 null; type: cell-based, human; details: 24 hours
Method: as §3, with “Cells” for “Where flow cytometric analysis was employed in Examples 1 to 5, the following protocol was used. Cells”, “Where flow cytometric analysis was employed in Examples 6 to 12, the following protocol was used.” left out

[9] = test system: procaspase 8, PARP; test: Western blot of procaspase 8 and PARP in HCT116 p53 null cells; type: cell-based, human; details: IC60 dose 24 hours followed by CH-11 200 ng/ml 24 hours
Method: as §1

[10] = test system: H630 cells; test: MTT cell viability assay in p53 mutant H630 cells; type: cell-based; details: drug 24 hours, then CH-11 for 48 hours (Example 11)
Method: as §4, §5

[11] = test system: procaspase 8, BID, PARP; test: Western blot of procaspase 8, BID and PARP in MCF-7 cells; type: cell-based
Method: as §1

[12] = test system: Fas; test: Western blot of Fas expression in M7TS90 cells; type: cell-based; details: 10 μM 5-FU, 100 nM RTX or 1 μM MTA for 72 hours
Method: as §1

[13] = test system: M7TS90-E6 cells; test: Flow cytometry sub-G1/G0 apoptotic fraction, M7TS90-E6; type: cell-based; details: 96 hours after drug treatment; RTX 100 nM, MTA 1 μM, 5-FU 10 μM
Method: as §3

[14] = test system: Fas; test: Western blot of Fas expression in M7TS90-E6 cells; type: cell-based; details: 10 μM 5-FU, 100 nM RTX or 1 μM MTA
Method: as §1

[15] = test system: Fas; test: Western blot of Fas expression in RKO cells; type: cell-based; details: 48 hours post-treatment; MTA data not shown
Method: as §1

[16] = test system: MCF-7 cells; test: MTT cell viability assay in MCF-7 cells; type: cell-based
Method: as §4, §5

[17] = test system: procaspase 8, PARP; test: Western blot of procaspase 8 and PARP in M7TS90-E6 cells; type: cell-based; details: p53 null; 5-FU 10 μM, RTX 100 nM, MTA 1 μM, CH-11 250 ng/ml; drugs alone data not shown
Method: as §1

[18] = test system: RKO cells; test: MTT cell viability assay in RKO cells; type: cell-based; details: data not shown
[19] = test system: Fas; test: Western blot of Fas expression in MCF-7 cells; type: cell-based
Method: as §1

[20] = test system: Fas/CD95 receptor; test: Flow cytometry of Fas/CD95 cell surface expression, HCT116 p53 wild-type; type: cell-based, human; details: 24 hours
Method: as §3

[21] = test system: HCT116p53^−/− cells; test: MTT cell viability assay in HCT116 p53 null cells; type: cell-based, human; details: range of drug concentrations 24 hours, then CH-11 200 ng/ml for 48 hours
Method: as §4, §5

[22] = test system: FasL; test: Western blot of FasL expression in MCF-7 cells; type: cell-based; details: IC60 doses, 72 hours
Method: as §1

[23] = test system: Fas; test: Western blot of Fas expression in H630 cells; type: cell-based; details: range of concentrations, 48 hours
Method: as §1

[24] = test system: MCF-7 cells; test: Flow cytometry of propidium iodide stained cells, sub-G1/G0 apoptotic fraction, MCF-7; type: cell-based; details: 25 nM RTX 72 hours, 250 ng/ml CH-11 24 hours; untreated control ~11%
Method: as §3

Structure (SMILES)	interaction with CH-11 in MTT assay [1]	induction of Fas/CD95 protein [2]	maximum induction of Fas mRNA [3]	induction of the Fas receptor [4]	interaction with CH-11 by propidium iodide staining [7]	induction of Fas/CD95 receptor cell surface expression [8]	Fas expression [2]	effect of TS induction on drug-mediated up-regulation of Fas [12]	induction of apoptosis by drug alone [13]	Fas up-regulation [14]	Fas expression [15]	PARP cleavage / processing [17]	further results
CCc1c2c(nc3ccc(OC(=O)N4CCC(N5CCCCC5)CC4)cc13)-c1cc3c(c(=O)n1C2)COC(=O)[C@]3(O)CC [CPT-11, Irinotecan]	significant synergy	significant induction	1.9 fold	Induction of the Fas receptor	significant synergy	induction of the Fas/CD95 receptor							induction of Fas/CD95 protein [5]: induction of Fas/CD95 protein; fold induction of Fas mRNA ([6]; 24 hours): 7.0 fold; fold induction of Fas mRNA ([6]; 48 hours): 2.5 fold; PARP cleavage and procaspase 8 activation following the addition of CH-11 [9]: PARP cleavage and procaspase 8 activation; interaction with CH-11 in MTT assay [10]: significant synergy
CC[C@H](C)[C@H](NC(=O)OCc1ccccc1)C(=O)N[C@@H](CCC(=O)OC)C(=O)N[C@H](C(=O)N[C@@H](CC(=O)OC)C(=O)CF)[C@@H](C)O [IETD-fmk] (Cbz-IE(OMe)TD(OMe)-CH2F)													effect on PARP cleavage in 5-FU/CH-11 co-treated cells ([11]; 10 μM IETD-fmk, 24 hours): inhibited PARP cleavage; effect on processing of procaspase 8 in cells co-treated with 5-FU and CH-11 ([11]; 10 μM IETD-fmk, 24 hours): blocked processing of procaspase 8
Nc1nc2[nH]cc(CCc3ccc(C(=O)N[C@@H](CCC(=O)O)C(=O)O)cc3)c2c(=O)[nH]1 [MTA, pemetrexed]							up-regulated	abrogated	~6 fold	did not result in Fas up-regulation	up-regulated	processed	interaction with CH-11 to decrease cell viability ([1]; data not shown): synergistically interacted; interaction with CH-11 to decrease cell viability ([16]; data not shown): synergistically interacted; interaction with CH-11 to decrease cell viability [18]: synergistically interacted; Fas expression ([19]; MTA data not shown, CH-11 alone 250 ng/ml, 5-FU alone 5 μM): up-regulated
O=C1[O][Pt]2([NH][C@@H]3CCCC[C@H]3[NH]2)[O]C1=O [Oxaliplatin]	significant synergy	significant induction	no induction	Neither 5-FU nor Oxaliplatin treatment for 48 hours caused significant upregulation									induction of Fas/CD95 receptor cell surface expression [20]: significantly induce expression; interaction with CH-11 in MTT assay [21]: no synergistic interaction
Cc1nc2ccc(CN(C)c3ccc(C(=O)N[C@@H](CCC(=O)O)C(=O)O)s3)cc2c(=O)[nH]1 [RTX, ralitrexed]	significant synergy				to a lesser extent	induction of the Fas/CD95 receptor	dramatically increased	abrogated	~8 fold	did not result in Fas up-regulation	dramatic Fas up-regulation	processed	FasL expression [22]: unaffected; Fas expression [23]: not significantly altered; cells in the sub-G1/G0 apoptotic phase [24]: ~16%; IC60 dose ([16]; MCF-7): 25 nM; induction of Fas mRNA expression ([6]; 24 and 48 hours): significant induction; activation of caspase 8 and BID (processing of procaspase 8 and full-length BID), words ([11]; 5 μM 5-FU or 25 nM RTX 72 hours, CH-11 250 ng/ml 24 hours): neither caspase 8, nor its substrate BID were activated; Fas protein up-regulation ([19]; 72 hours, IC60 dose (5 μM 5-FU, 25 nM RTX)): ~7 fold
